Experimental data as given in US20060276390A1, “Combined treatments comprising synthetic peptide copolymers for preventing graft rejection” (YEDA RESEARCH AND DEVELOPMENT CO. LTD., priority 2003, published 2006).
Values joined by “and” are separate entries in the source; they are usually repeats but may differ in a detail not shown here. Identical values can stand only once. “Also recorded” adds a separate entry of the source. Like-named read-outs stand apart in the source and are kept apart here.

Columns and labels:
[1] = test system: BALB/c recipient mice transplanted with skin grafts from B10.D2 donors; test: Skin graft rejection, B10.D2→BALB/c model; assay type: in vivo, mouse
Method: (§1) Mice were kept in separate cages and inspected daily.
(§2) The transplanted mice or rats were treated daily with Copolymer 1 at doses of 0.6-2.5 mg/day for mice and 25 mg/day for rats in PBS solution, starting 7 or 14 days before transplantation. In some cases, the first Cop 1 treatment was injected sc in ICFA as a depot dose.
To test the effect of Copolymer 1 treatment on skin graft rejection in the B10.D2→BALB/c model, BALB/c recipient mice were transplanted with skin grafts from B10.D2 donors and were treated daily with: PBS ip from day −7, Copolymer 1 (ip+sc) from day −7. Grafts were inspected daily.
Grafts were inspected daily. […] Thyroid glands from B10.D2 donors were transplanted in the kidney's capsules of BALB/c mice.

[2] = test system: thyroid glands from B10.D2 donors transplanted in the kidney's capsules of BALB/c mice; test: Function of transplanted thyroids (I125 absorbance), B10.D2→BALB/c model; assay type: in vivo, mouse; conditions: for MFI (mean function index): fold over PBS
Method: (§3) In this transplantation model for HVG, thyroid glands from donor mice were transplanted in the kidney's capsules of recipient mice. One week later the transplanted mice were injected with ^125I, and the radioactivity of each kidney (the recipient or the untransplanted kidney) was measured after 20 hours. Δcpm was calculated by subtracting the ^125I absorbance of the untransplanted kidneys from the ^125I absorbance of the recipient kidneys in the same treatment. The mean function index (MFI) for treatment was calculated by dividing the mean Δcpm for the tested treatment by the mean Δcpm for the PBS treatment. P values were obtained by the ANOVA test. This assay indicates objectively and quantitatively not only the graft survival, but also the function (iodine absorbance) of the transplanted thyroid tissue (Isakov et al., 1979).
as §2
To test the effect of Copolymer 1 treatment on the function of transplanted thyroids in the B10.D2→BALB/c model, thyroid glands from donors B10.D2 were transplanted in the kidney's capsules of BALB/c mice. After one week the transplanted mice were injected with I^125, and the radioactivity of each kidney was measured 20 hours later. A cpm was calculated by subtracting the I^125 absorbance of the untransplanted kidneys from the I^125 absorbance of the recipient kidneys in the same treatment. The mean function index (MFI) for each treatment was calculated by dividing the mean I^125 absorbance of (transplanted kidney—untransplanted kidney) in the tested treatment by the mean I^125 absorbance of (transplanted kidney—untransplanted kidney) in the PBS treatment, as follows: [formula]

[3] = test system: BALB/c recipient mice transplanted with skin grafts from C57BL donors; conditions: for mean survival time (MST) of skin graft / prolongation of skin graft survival: FIG. 3 experiment
Method: BALB/c mice were transplanted with skin grafts from C57BL/6 donors. […] Grafts were considered rejected when no viable donor epidermis remained. At least 7 mice were tested in each group.
Skin transplantation is an established model to measure immune rejection. In this model recipient and donor mice were anesthetized, shaved and cleaned. Circular pieces of skin (1.0 to 1.3 cm in diameter) were cut from dorsal side of the donor mice and dorsally transplanted to recipient animals by the use of histoacryl (Braun, Melsungen, Germany). The grafts were covered with Nobecutane antiseptic spray bandage (Astra, Wedel, Germany). Mice were kept in separate cages and inspected daily. Grafts were considered rejected when no viable donor epidermis remained.
Three murine strain combinations: B10.D2→BALB/c in the H-2^d haplotype, C57BL→C3HSW in the H-2^b haplotype, and B10PL→PL/J in the H-2^u haplotype, were tested across minor histocompatibility barriers, and across major histocompatibility barriers transplantation was tested in C57BL→BALB/c in the H-2^b→H-2^d haplotype. These strain combinations were tested with Copolymer 1 both using skin and thyroid transplantations.
BALB/c recipient mice were transplanted with skin grafts originated in C57BL donors in day 0. GA (100 mg/kg, s.c.) was injected daily starting 2 weeks before transplantation. […] Rejection was considered positive when no viable donor epidermis remained.

[4] = test system: thyroid glands from C57BL mice transplanted in the kidney capsule of BALB/c mice; test: Function of transplanted thyroids (I125 absorbance), C57BL→BALB/c model; assay type: in vivo, mouse
Method: as §3
BALB/c recipient mice were transplanted in the kidney's capsules with thyroid glands from donor mice in day 0. Grafts were inspected daily. The function (iodine absorbance) of the transplanted thyroid tissue was examined 10 days after transplantation by measuring the iodine absorbance in the kidney.
Thyroid glands from C57BL mice were transplanted in the kidney capsule of BALB/c mice. Nine days after transplantation, mice were injected with 1 μcI^125, and the radioactivity of each kidney was measured 20 hr. later. MFI—denotes the mean function index, calculated as
MFI=mean Δcpm for the tested treatment/mean Δcpm for the PBS tested treatment

[5] = test system: Lewis rats transplanted with an accessory heart from allogeneic disparate BN donor rats; assay type: in vivo
Description: Lewis rats were transplanted with an accessory heart from the allogeneic disparate BN donor rats. […] Combination of pretreatment with GA and the respective doses of the immunosuppressants (open bars); Treatment with GA administered from the day of transplantation without pretreatment (striped bar). Cardiac allograft survival was inspected by daily monitoring palpation of the grafts. Grafts were considered rejected when no heart palpitations could be observed.

C57BL→C3HSW skin graft = test: Skin graft rejection, C57BL→C3HSW (H-2b); assay type: in vivo, mouse; conditions: Cop 1
Method: as §1, §2

B10PL→PL/J skin graft = test: Skin graft rejection, B10PL→PL/J (H-2u); assay type: in vivo, mouse; conditions: Cop 1
Method: as §1, §2

C57BL→C3H thyroid graft = test: Thyroid rejection (I125 absorbance), C57BL→C3H (H-2b); assay type: in vivo, mouse; conditions: Cop 1
Method: as §3, §2

B10PL→PL/J thyroid graft = test: Thyroid rejection (I125 absorbance), B10PL→PL/J; assay type: in vivo, mouse; conditions: Cop 1
Method: as §3, §2

[6] = FK 506 300 μg/day ip, 7 times from day −2
[7] = Cop 1 600 μg/day ip from day −7
[8] = Cop 1, another experiment (N=5)
[9] = Cop 1 2.5 mg/mouse, Table 7 Part 1
[10] = Cop 1 2.5 mg/mouse, Table 7 Part 2
[11] = Cop 1, C57BL → BALB (H-2b → H-2d), Table 5

C=CC[C@@H]1/C=C(\C)C[C@H](C)C[C@H](OC)[C@H]2O[C@@](O)(C(=O)C(=O)N3CCCC[C@H]3C(=O)O[C@H](/C(C)=C/[C@@H]3CC[C@@H](O)[C@H](OC)C3)[C@H](C)[C@@H](O)CC1=O)[C@H](C)C[C@@H]2OC [FK 506, tacrolimus]
MST (Mean Survival Time) of skin graft ([1]; FK506 300 μg/day ip, 7 injections from day −2): 21.2 days
MST (Mean Survival Time) of skin graft ([1]; FK506 300 μg/day ip, 7 injections from day −2, listed as FK506): 21.2 ± 4.3 days
Mean I^125 Absorption, Transplanted Kidney [2, 6]: 3117 cpm
Δcpm (transplanted minus untransplanted kidney) [2, 6]: 2424 cpm
MFI (mean function index) ([2]; FK 506 300 μg/day): 3.1
mean survival time (MST) of skin graft ([3]; FK 506 5 mg/kg): 9.5 days
prolongation of skin graft survival ([3]; FK 506 5 mg/kg): 12%
mean survival time (MST) of skin graft ([3]; FK 506 10 mg/kg): 13.8 days
prolongation of skin graft survival ([3]; FK 506 10 mg/kg): 88%
Prolongation ([3]; FK 506 1.25 mg/kg alone): 8%
MST (Mean Graft Survival Time) ([3]; FK 506 1.25 mg/kg i.m. daily from 6 days before transplantation, alone): 11.2 days
MST (Mean Graft Survival Time) ([3]; FK 506 2.5 mg/kg alone): 11.8 days
Prolongation ([3]; FK 506 2.5 mg/kg alone): 13%
MST (Mean Graft Survival Time) ([3]; FK 506 5.0 mg/kg alone): 12.7 days
Prolongation ([3]; FK 506 5.0 mg/kg alone): 22%
MST (Mean Graft Survival Time) ([3]; FK 506 10 mg/kg alone): 16.0 days
Prolongation ([3]; FK 506 10 mg/kg alone): 54%
mortality ([3]; higher dose, FK 506 10 mg/kg, average): 20 % of the mice
toxic effect on the mice ([3]; mouse, in vivo, 10 mg/kg): considerable weight loss and weakness
MFI ([4]; FK506 1.25 mg/kg): 3.1
Mean I^125 Absorbance, Transplanted kidney ([4]; FK506 1.25 mg/kg): 928 ± 165 cpm
Δcpm ([4]; FK506 1.25 mg/kg): 327 cpm
MFI ([4]; FK506 2.5 mg/kg): 4.1
Mean I^125 Absorbance, Transplanted kidney ([4]; FK506 2.5 mg/kg): 772 ± 519 cpm
Δcpm ([4]; FK506 2.5 mg/kg): 431 cpm
MFI ([4]; FK506 5 mg/kg): 3.7
Mean I^125 Absorbance, Transplanted kidney ([4]; FK506 5 mg/kg): 1167 ± 636 cpm
Δcpm ([4]; FK506 5 mg/kg): 383 cpm
Prolongation ([5]; FK 506 1.25 mg/kg alone): 15.3 days
MST (Mean Graft Survival Time) of heart graft ([5]; FK 506 1.25 mg/kg daily from 6 days before transplantation, alone, 1.25 mg/kg): 22.5 days and 22.5 ± 0.9 days
Prolongation ([5]; FK 506 2.5 mg/kg alone): 18.3 days
MST (Mean Graft Survival Time) of heart graft ([5]; FK 506 2.5 mg/kg alone, 2.5 mg/kg): 25.5 days and 25.5 ± 1.4 days
toxicity in rats ([5]; FK 506 2.5 mg/kg, 2.5 mg/kg): toxic consequences
death of rats after number of daily injections ([5]; FK506 5 mg/kg): 6-8 daily injections
toxicity in rats ([5]; FK 506 5.0 mg/kg, 5 mg/kg): toxic consequences; also recorded: toxic all rats died

glatiramer acetate [Cop 1]
MST (Mean Survival Time) of skin graft ([1]; Cop 1 300 μg/day ip+sc daily from day −7): 20.4 ± 4.5 days
MST (Mean Survival Time) of skin graft ([1]; Cop 1 300 μg/day ip+sc daily from day −7, listed as Copolymer 1): 20.4 days
MST (Mean Survival Time) of skin graft ([1]; Cop 1 600 μg/day ip+sc daily from day −7): 20.6 days and 20.6 ± 3.3 days
MST (Mean Survival Time) of skin graft ([1]; Cop 1 600 μg/day ip+sc daily from day −7, listed as Copolymer 1): 20.6 days
Mean I^125 Absorption, Transplanted Kidney [2, 7]: 2901 cpm
Δcpm (transplanted minus untransplanted kidney) [2, 7]: 2451 cpm
MFI (mean function index) ([2]; Cop 1 600 ug/day, another experiment (N=5)): 5.2
MFI (mean function index) ([2]; Cop 1 600 μg/day): 3.2
Mean I^125 Absorption, Transplanted Kidney [2, 8]: 1035 cpm
Δcpm [2, 8]: 898 cpm
MST (Mean Survival Time) of skin graft (C57BL→C3HSW skin graft): 17.7 ± 2.1
MST (Mean Survival Time) of skin graft (B10PL→PL/J skin graft): 17.6 ± 5.1
MST (Mean Survival Time) of skin graft ([3]; Cop 1, listed as printed C57BL→C3HSW (H-2b → H-2d)): 18.5 ± 3.3
prolongation of skin graft survival ([3]; GA 100 mg/kg): 27%
mean survival time (MST) of skin graft ([3]; GA 100 mg/kg, untreated control 8.5 days): 10.8 days
Prolongation ([3]; GA 100 mg/kg alone, Table 6A): 10%
MST (Mean Graft Survival Time) ([3]; GA 100 mg/kg alone, Table 6B): 11.5 days
Prolongation ([3]; GA 100 mg/kg alone, Table 6B): 11%
appearance of mice ([3]; GA 100 mg/kg injected daily): looked completely healthy
MST (Mean Graft Survival Time) ([3]; GA 100 mg/kg s.c. daily from 2 weeks before transplantation, alone, Table 6A): 12.3 days
MFI (mean function index) (C57BL→C3H thyroid graft): 2.3
Mean I^125 Absorption, Transplanted Kidney (C57BL→C3H thyroid graft): 1643 cpm
Δcpm (C57BL→C3H thyroid graft): 1362 cpm
MFI (mean function index) (B10PL→PL/J thyroid graft): 2.5
Mean I^125 Absorption, Transplanted Kidney (B10PL→PL/J thyroid graft): 2009 cpm
Δcpm (B10PL→PL/J thyroid graft): 1677 cpm
MFI [4, 9]: 3.5
Mean I^125 Absorbance, Transplanted kidney [4, 9]: 439 ± 31 cpm
Δcpm [4, 9]: 122 cpm
MFI [4, 10]: 2.4
Mean I^125 Absorbance, Transplanted kidney [4, 10]: 671 ± 24 cpm
Δcpm [4, 10]: 247 cpm
MFI (mean function index) [4, 11]: 3.0
Mean I^125 Absorption, Transplanted Kidney [4, 11]: 10759 cpm
Δcpm [4, 11]: 9835 cpm
Prolongation ([5]; GA 100 mg/kg alone, vs untreated control): 0.4 days
MST (Mean Graft Survival Time) of heart graft ([5]; GA 100 mg/kg daily from 2 weeks before transplantation, alone): 7.6 ± 0.5 days
effect on heart graft survival ([5]; GA treatment by itself): did not prolong graft survival
